Tests used:
human AR [1] = target: T1, human AR (Homo sapiens, UniProt P10275); experiment: AR whole cell competitive binding assay (3H-DHT), transfected COS-1 cells; parameters: expressed in transfected cells; transient transfection with pRShAR; settings: AR Binding Ki (nM), COS-1 cells, 1 nM 3H-DHT, Cheng-Prusoff from IC50
T1 sequence (P10275 1-920): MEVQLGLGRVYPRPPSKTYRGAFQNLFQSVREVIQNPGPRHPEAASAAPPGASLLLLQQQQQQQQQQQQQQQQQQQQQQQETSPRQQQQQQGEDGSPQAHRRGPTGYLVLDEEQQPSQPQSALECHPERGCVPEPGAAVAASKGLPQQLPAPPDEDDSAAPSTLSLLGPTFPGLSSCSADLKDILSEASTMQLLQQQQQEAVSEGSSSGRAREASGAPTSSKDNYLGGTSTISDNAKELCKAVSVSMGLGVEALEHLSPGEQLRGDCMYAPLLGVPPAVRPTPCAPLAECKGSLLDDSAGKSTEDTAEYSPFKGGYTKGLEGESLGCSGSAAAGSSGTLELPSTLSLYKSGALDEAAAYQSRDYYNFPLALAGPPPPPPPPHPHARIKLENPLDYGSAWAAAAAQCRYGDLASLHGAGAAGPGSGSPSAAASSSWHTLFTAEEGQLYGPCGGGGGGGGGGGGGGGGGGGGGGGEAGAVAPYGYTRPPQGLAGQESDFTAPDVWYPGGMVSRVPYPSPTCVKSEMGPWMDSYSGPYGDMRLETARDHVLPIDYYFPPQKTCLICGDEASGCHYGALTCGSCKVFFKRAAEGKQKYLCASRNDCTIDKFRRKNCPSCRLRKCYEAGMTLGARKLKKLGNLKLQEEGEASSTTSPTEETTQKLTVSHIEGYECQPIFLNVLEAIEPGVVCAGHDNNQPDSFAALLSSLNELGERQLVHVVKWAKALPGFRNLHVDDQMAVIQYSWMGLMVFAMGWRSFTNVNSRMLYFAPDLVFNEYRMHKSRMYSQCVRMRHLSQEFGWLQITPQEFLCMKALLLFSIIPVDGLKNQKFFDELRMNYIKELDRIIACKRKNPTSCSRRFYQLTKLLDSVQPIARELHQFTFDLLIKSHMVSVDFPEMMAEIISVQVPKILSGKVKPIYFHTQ

human AR [2] = target: T1, human AR; experiment: Co-transfection assay, AR antagonist activity in presence of DHT, CV-1 cells; type: cell-based; parameters: expressed in transfected cells; host or cells: CV-1 cells (African green monkey kidney fibroblasts), transient transfection with pRShAR; settings: CV-1 cells; for IC50: AR Antagonist CV-1 Cells Potency (nM), antagonist potency or IC50, DHT at its EC50 concentration; for AR Antagonist CV-1 Cells Efficacy (%): percent maximal inhibition, DHT at its EC50 concentration
human AR [3] = target: T1, human AR; experiment: Co-transfection assay, AR agonist activity, CV-1 cells; type: cell-based; parameters: expressed in transfected cells; host or cells: CV-1 cells (African green monkey kidney fibroblasts), transient transfection with pRShAR; settings: for EC50: AR Agonist CV-1 Cells Potency (nM), agonist potency or EC50; for AR Agonist CV-1 Cells Efficacy (%): percent maximal response relative to reference agonist DHT

Row | SMILES | Ki (human AR [1]) | IC50 (human AR [2]) | AR Antagonist CV-1 Cells Efficacy (%) (human AR [2]) | EC50 (human AR [3]) | AR Agonist CV-1 Cells Efficacy (%) (human AR [3])
1 | CCC1CCOc2cc3c(cc21)c(C(F)(F)F)c(F)c(=O)n3C (racemic) [Compound 221, (±)-6,7-Dihydro-6-ethyl-3-fluoro-4-trifluoromethyl-1-methyl-8H-pyrano[3,2-g]quinolin-2(1H)-one] | 29 nM | 311 nM | 78% | > 10000 nM | na (na = not active (i.e. efficacy of <20 and potency of >10,000))
2 | O=c1cc(C(F)(F)F)c2c3c(ccc2[nH]1)N(CC(F)(F)F)C1CCCC31 (single isomer, unassigned; (+)) [Compound 178, (+)-4c,5,6,7,7a(cis),8-Hexahydro-8-(2,2,2-trifluoroethyl)-4-trifluoromethylcyclopentano-[g]pyrrolo[3,2-f]quinolin-2(1H)-one] | 900 nM | 50 nM | 48% | 21 nM | 24%
3 | O=c1cc(C(F)(F)F)c2c3c(ccc2[nH]1)N(CC(F)(F)F)C1CCCC31 (single isomer, unassigned; (-)) [Compound 179, (−)-4c,5,6,7,7a(cis),8-Hexahydro-8-(2,2,2-trifluoroethyl)-4-trifluoromethylcyclopentano-[g]pyrrolo[3,2-f]quinolin-2(1H)-one] | 4.1 nM | > 10000 nM | na (na = not active (i.e. efficacy of <20 and potency of >10,000)) | 1.3 nM | 91%
4 | CC1(C)CCc2c(ccc3[nH]c(=O)cc(C(F)(F)F)c23)N1 [Compound 104, 5,6,7,8-Tetrahydro-7,7-dimethyl-4-trifluoromethylpyridino[3,2-f]quinolin-2(1H)-one] | 15 nM | 1.8 nM | 50% | 183 nM | 78%
5 | CCC1(CC)CCc2c(ccc3[nH]c(=O)cc(C(F)(F)F)c23)N1 [Compound 105, 5,6,7,8-Tetrahydro-7,7-diethyl-4-trifluoromethylpyridino[3,2-f]quinolin-2(1H)-one] | 45 nM | > 10000 nM | na (na = not active (i.e. efficacy of <20 and potency of >10,000)) | 32 nM | 57%
6 | CC1(C)C=Cc2c(ccc3[nH]c(=O)cc(C(F)(F)F)c23)N1 [Compound 106, 7,8-Dihydro-7,7-dimethyl-4-trifluoromethylpyridino[3,2-f]quinolin-2(1H)-one] | 45 nM | > 10000 nM | na (na = not active (i.e. efficacy of <20 and potency of >10,000)) | 12 nM | 108%
7 | CCN1c2ccc3[nH]c(=O)cc(C(F)(F)F)c3c2CCC1(C)C [Compound 108, 8-Ethyl-5,6,7,8-tetrahydro-7,7-dimethyl-4-trifluoromethylpyridino[3,2-f]quinolin-2(1H)-one] | 6.7 nM | > 10000 nM | na (na = not active (i.e. efficacy of <20 and potency of >10,000)) |  | 66%
8 | CCCN1c2ccc3[nH]c(=O)cc(C(F)(F)F)c3c2CCC1(C)C [Compound 109, 5,6,7,8-Tetrahydro-7,7-dimethyl-4-trifluoromethyl-8-propylpyridino[3,2-f]quinolin-2(1H)-one] | 1.2 nM | > 10000 nM | na (na = not active (i.e. efficacy of <20 and potency of >10,000)) | 13 nM | 97%
9 | CC1(C)CCc2c(ccc3[nH]c(=O)cc(C(F)(F)F)c23)N1CC(F)(F)F [Compound 110, 8-(2,2,2-Trifluoroethyl)-5,6,7,8-tetrahydro-7,7-dimethyl-4-trifluoromethyl-pyridino[3,2-f]quinolin-2(1H)-one] | 21 nM | > 10000 nM | na (na = not active (i.e. efficacy of <20 and potency of >10,000)) | 21 nM | 106%
10 | O=c1cc(C(F)(F)F)c2c(ccc3c2c2ccccc2n3CC(F)(F)F)[nH]1 [Compound 158, 9-(2,2,2-Trifluoroethyl)-4-trifluoromethyl-9H-benzo[g]pyrrolo[3,2f]quinolin-2(1H)-one] | 7.1 nM | > 10000 nM | na (na = not active (i.e. efficacy of <20 and potency of >10,000)) | 7.9 nM | 59%
11 | O=c1cc(C(F)(F)F)c2cc3c(cc2[nH]1)c1c(n3CC(F)(F)F)CCC1 [Compound 159, 6-(2,2,2-Trifluoroethyl)-4-trifluoromethyl-6,7,8,9-tetrahydrocyclopentano[i]pyrrolo[2,3-g]quinolin-2(1H)-one] | 989 nM | 15 nM | 66% | > 10000 nM | na (na = not active (i.e. efficacy of <20 and potency of >10,000))
12 | C=CCc1c(C)[nH]c2c1ccc1[nH]c(=O)cc(C(F)(F)F)c12 [Compound 173, 7-Allyl-6-methyl-4-trifluoromethyl-5H-pyrrolo[2,3-f]quinolin-2(1H)-one] | 80 nM | 1 nM | 56% | 138 nM | 41%
13 | CCc1[nH]c2c(ccc3[nH]c(=O)cc(C(F)(F)F)c32)c1C [Compound 175, 6-Ethyl-7-methyl-4-trifluoromethyl-5H-pyrrolo[2,3-f]quinolin-2(1H)-one] | 239 nM | 11 nM | 78% | > 10000 nM | na (na = not active (i.e. efficacy of <20 and potency of >10,000))
14 | Cc1[nH]c2c(ccc3[nH]c(=O)cc(C(F)(F)F)c32)c1CCO [Compound 177, 7-(2-Hydroxyethyl)-6-methyl-4-trifluoromethyl-5H-pyrrolo[2,3-f]quinolin-2(1H)-one] | 31 nM | 790 nM | 98% | > 10000 nM | na (na = not active (i.e. efficacy of <20 and potency of >10,000))
15 | CC1CCc2cc3[nH]c(=O)cc(C(F)(F)F)c3cc2N1CC1CC1 (stereo not shown) [Compound 195, 4-Trifluoromethyl-7-methyl-6-cyclopropylmethyl-6,7,8,9-tetrahydropyrido[2,3-g]quinolin-2(1H)-one] | 20 nM | > 10000 nM | na (na = not active (i.e. efficacy of <20 and potency of >10,000)) |  | 78%
16 | CC1CCc2cc3[nH]c(=O)cc(C(F)(F)F)c3cc2N1CC(F)(F)F (stereo not shown) [Compound 197, 4-Trifluoromethyl-7-methyl-6-(2,2,2-trifluoroethyl)-6,7,8,9-tetrahydropyrido[2,3-g]quinolin-2(1H)-one] | 79 nM | > 10000 nM | na (na = not active (i.e. efficacy of <20 and potency of >10,000)) | 12 nM | 66%
17 | O=c1cc(C(F)(F)F)c2cc3c(cc2[nH]1)CCCN3CC(F)(F)F [Compound 198, 4-Trifluoromethyl-6-(2,2,2-trifluoroethyl)-6,7,8,9-tetrahydropyrido[2,3-g]quinolin-2(1H)-one] | 58 nM | > 10000 nM | na (na = not active (i.e. efficacy of <20 and potency of >10,000)) | 1.7 nM | 47%
18 | CCCN1CCCc2cc3[nH]c(=O)cc(C(F)(F)F)c3cc21 [Compound 199, 4-Trifluoromethyl-6-propyl-6,7,8,9-tetrahydropyrido[2,3-g]quinolin-2(1H)-one] | 236 nM | > 10000 nM | na (na = not active (i.e. efficacy of <20 and potency of >10,000)) | 42 nM | 70%
